Assay results published in US4769483A, “Cycloalkyl-substituted 4-aminophenyl derivatives and process for their preparation” (Farmitalia Carlo Erba, S.p.A., priority 1985, dated 1988).

Tests used:
[1] = target: T1, human placental aromatase (Homo sapiens, UniProt P11511); test: Inhibition of human placental aromatase in vitro (3H2O release from 4-[1β,2β-3H]androstene-3,17-dione); assay type: biochemical; details: for IC50: microsomal fraction of human placental tissue, 50 nM 4-[3H]androstenedione, 100 μM NADPH, 0.05 mg microsomal proteins, 37° C., pH 7.5, 15 minutes; for Relative potency: versus aminoglutethimide (= 1 by definition)
T1 construct: the enzyme system was isolated from the microsomal fraction of human placental tissue; from tissue; host or cells: human placenta, microsomal fraction
T1 sequence (P11511 1-503): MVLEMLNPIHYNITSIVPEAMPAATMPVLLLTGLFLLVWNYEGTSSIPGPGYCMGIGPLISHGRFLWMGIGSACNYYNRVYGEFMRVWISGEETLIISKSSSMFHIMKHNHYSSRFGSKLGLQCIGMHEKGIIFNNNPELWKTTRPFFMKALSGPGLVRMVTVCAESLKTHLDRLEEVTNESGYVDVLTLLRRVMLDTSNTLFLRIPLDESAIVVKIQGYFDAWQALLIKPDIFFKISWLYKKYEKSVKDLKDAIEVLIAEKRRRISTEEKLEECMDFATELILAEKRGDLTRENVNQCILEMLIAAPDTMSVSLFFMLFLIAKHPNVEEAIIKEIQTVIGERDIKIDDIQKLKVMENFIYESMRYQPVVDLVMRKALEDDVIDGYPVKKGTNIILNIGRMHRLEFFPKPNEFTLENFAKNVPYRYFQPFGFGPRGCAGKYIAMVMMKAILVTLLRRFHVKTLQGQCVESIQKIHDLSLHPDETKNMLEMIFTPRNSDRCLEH
Experimental: The assay of the aromatase inhibition in vitro was carried out as follows: the enzyme system was isolated from the microsomal fraction of human placental tissue according to standard procedure. […] All incubations were carried out in a shaking water bath at 37° C. in air in 10 mM potassium phosphate buffer, pH 7.5, which contained 100 mM KCl, 1 mM EDTA and 1 mM dithiothreitol.
The experiments were carried out in 1 ml incubation volume containing 50 nM 4-[^3 H]androstenedione, various concentrations of the inhibitors, 100 μM NADPH and 0.05 mg of microsomal proteins. After 15 minutes of incubation the reaction was stopped by the addition of choroform (5 ml).
After centrifugation at 1500 ×g for 5 minutes aliquots (0.5 ml) were removed from the water phase for determination of ^3 H2 O formed.

aromatase = details: literature reports; cited from earlier work

SMILES | IC50 [1] [nM] | Relative potency [1] | aromatase-inhibiting action (in words) (aromatase)
C[C@@H](C(=O)OC1CCCCC1)c1ccc(N)cc1 [FCE 24328, cyclohexyl 2-(R)-2-(4'-aminophenyl)propionate] | 100 | 21.2 | 
CCC1(c2ccncc2)CCC(=O)NC1=O (centres unmarked) [4-pyridyl-3-ethyl-2,6-piperidinedione] |  |  | more or less selective aromatase-inhibiting action
Nc1ccc(C2CCCCC2)cc1 [4-cyclohexylaniline] | 1220 | 1.7 | more or less selective aromatase-inhibiting action
C[C@@H](C(=O)NC1CCCCC1)c1ccc(N)cc1 [FCE 24786, N-cyclohexyl-2-(R)-2-(4'-aminophenyl)propanamide] | 130 | 16.3 | 
